According to US7803801B2, “Aminopyridine compounds having Syk inhibitory activity” (Japan Tobacco, Inc., priority 2005, dated 2010):
pIC50: −log10 of the molar value.

Experiments:
[1] = test system: cultured human mast cells; assay: Degranulation inhibition test using cultured human mast cells (IgE cross-linking, β-Hexosaminidase release); assay type: cell-based; conditions: Mast cell; Tables 2-x, thiophene compounds B; cultured human mast cells; read-out: human degranulation ave. IC50
Method in brief: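 CD34+ cord-blood cells cultured ≥8 weeks with SCF/IL-6/IL-3; FcεRI primed 5 days with rhIL-4 (1 ng/mL) and hIgE (0.5 μg/mL). Compound (0.1% DMSO) preincubated 10 min at 37 °C, then anti-IgE (final 10 μg/mL) 30 min; released β-hexosaminidase read at 405 nm versus total lysate, IC50 (M).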

[2] = molecular target: GST-Syk Full Protein (human) (Homo sapiens, UniProt P43405); assay: Syk kinase inhibition test (HTRF method); assay type: biochemical; conditions: Tables 2-x, thiophene compounds B; read-out: sykHTRK ave IC50
Method in brief: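 Human GST-Syk full-length (6.4 nM) phosphorylated biotin-EDPDYEWPSA-NH2 (250 nM) with 100 μM ATP in HEPES pH 7.0/MgCl2 buffer, 2% DMSO, 30 min at room temperature. EDTA stop, then HTRF detection (streptavidin-XL665, Eu anti-phosphotyrosine) after 1 h; 665/620 ratio read.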

## CC(=O)O/N=C(\C)c1ccc(-c2cccc(Nc3cc(C)ccn3)n2)s1 [Compound B-86]
[1]
  pIC50: 6.00 to 7.00
[2]
  pIC50: 6.00 to 7.00

## CC(=O)c1ccc(-c2cccc(Nc3cc(C4=NC(C)(C)CO4)ccn3)n2)s1 [Compound B-87, 1-(5-{6-[4-(4,4-dimethyl-4,5-dihydrooxazol-2-yl)pyridin-2-ylamino]pyridin-2-yl}thiophen-2-yl)ethanone]
[1]
  pIC50: 6.00 to 7.00
[2]
  pIC50: > 7.00

## Cc1ccnc(Nc2cccc(-c3cc(C)c(C(=O)NC(C)(C)CO)s3)n2)c1 [Compound B-88]
[1]
  pIC50: 6.00 to 7.00
[2]
  pIC50: 6.00 to 7.00

## CCc1ccc(-c2cccc(Nc3cc(C)ccn3)n2)s1 [Compound B-91]
[1]
  pIC50: < 6.00
[2]
  pIC50: 6.00 to 7.00

## Cc1ccnc(Nc2cccc(-c3ccc(C(C)N)s3)n2)c1 (stereo not shown) [Compound B-92]
[1]
  pIC50: 6.00 to 7.00
[2]
  pIC50: 6.00 to 7.00

## CC(=O)NC(C)c1ccc(-c2cccc(Nc3cc(C)ccn3)n2)s1 (stereo not shown) [Compound B-93]
[1]
  pIC50: 6.00 to 7.00
[2]
  pIC50: 6.00 to 7.00

## OCc1ccnc(Nc2cccc(-c3cccs3)n2)c1 [Compound B-94]
[1]
  pIC50: 6.00 to 7.00
[2]
  pIC50: 6.00 to 7.00

## Cc1ccnc(Nc2cccc(-c3ccc(-c4nnn[nH]4)s3)n2)c1 [Compound B-95]
[1]
  pIC50: < 6.00
[2]
  pIC50: 6.00 to 7.00

## CC(=O)c1ccc(-c2cccc(Nc3cc(CO)ccn3)n2)s1 [Compound B-96]
[1]
  pIC50: < 6.00
[2]
  pIC50: 6.00 to 7.00

## COC(=O)CCNC(=O)c1ccc(-c2cccc(Nc3cc(C)ccn3)n2)s1 [Compound B-97]
[1]
  pIC50: < 6.00
[2]
  pIC50: 6.00 to 7.00

## Cc1ccnc(Nc2cccc(-c3ccc(C(=O)NCCC(=O)O)s3)n2)c1 [Compound B-98]
[1]
  pIC50: < 6.00
[2]
  pIC50: 6.00 to 7.00

## Cc1ccnc(Nc2cccc(-c3ccc(C(=O)NCC(=O)O)s3)n2)c1 [Compound B-99]
[1]
  pIC50: < 6.00
[2]
  pIC50: 6.00 to 7.00

## Cc1ccnc(Nc2cccc(-c3ccc(C(=O)NC(C)(C)C(=O)O)s3)n2)c1 [Compound B-100]
[1]
  pIC50: < 6.00
[2]
  pIC50: 6.00 to 7.00

## Cc1ccnc(Nc2cccc(-c3ccc(C(=O)NC(C)(C)CC(=O)O)s3)n2)c1 [Compound B-101]
[1]
  pIC50: < 6.00
[2]
  pIC50: 6.00 to 7.00

## Cc1ccnc(Nc2cccc(-c3ccc(C(=O)NCC(O)CO)s3)n2)c1 (stereo not shown) [Compound B-102]
[1]
  pIC50: < 6.00
[2]
  pIC50: 6.00 to 7.00

## Cc1ccnc(Nc2cccc(-c3ccc(CNCCC(=O)O)s3)n2)c1 [Compound B-103]
[1]
  pIC50: < 6.00
[2]
  pIC50: 6.00 to 7.00

## Cc1ccnc(Nc2cccc(-c3ccc(C(=O)NC4CC4)s3)n2)c1 [Compound B-104]
[1]
  pIC50: < 6.00
[2]
  pIC50: 6.00 to 7.00
